Source: patent publication US20080262021A1, “1H-Imidazoquinoline Derivatives as Prote In Kinase Inhibitors” (NOVARTIS AG, priority 2003, published 2008)

Experiments:
Assay type in all cases: biochemical
[1] = molecular target: T1, S6K1 (Homo sapiens, UniProt P23443, T412E); assay: S6K1 kinase inhibition (S6K1ΔCT/T412E, TR-FRET); conditions: read-out: IC50 Range Class, inhibition of S6K1
T1 construct: His (N); made in house; host or cells: Sf9 insect cells (baculovirus, pFastBacHT A), co-infected with GST-PDK1 virus
Excerpt: The DNA fragment encoding S6K1ΔCT/T412E is subcloned to the baculovirus donor vector pFastBacHT A to generate a recombinant baculovirus that expresses S6K1ΔCT/T412E. Transfer vectors for S6K1ΔCT/T412E are transfected into the DH10Bac cell line (GIBCO). After selection of white colonies, they are used for viral DNA (bacmid) preparation. Sf9 cells (American Type Culture Collection) cells are then transfected with the viral DNA using Cellfectin reagent. Virus-containing media is collected from the transfected cell culture and is used for infection to increase its titer. For large-scale protein expression, Sf9 cells are co-infected with S6K1ΔCT/T412E and GST-PDK1 virus-containing media with MOI of 2.25 and 1, respectively. After 3 days, the cells expressing the recombinant enzyme are resuspended in the culture medium with a sterilized cell scraper and harvested by centrifugation. The cells are resuspended in 5 volumes of cell pellet of Extraction Buffer (50 mM MOPS pH 7.0, containing 300 mM NaCl, 0.05% Tween-20, 10 mM sodium pyrophosphate, 50 mM β-glycerophosphate, 0.2 mM cantharidic acid and 1× complete-EDTA protease inhibitor cocktail) and then disrupted with 15 strokes of a Dounce homogenizer followed by sonication on ice. The homogenate is centrifuged at 4° C. for 60 minutes at 48,000×g. The supernatant is clarified with a 5 μm filter and subjected to purification with TALON Superflow Resin (Clontech). First, 1 mL of TALON resin per 5 mL of the supernatant was equilibrated with the Extraction Buffer and resuspended in the supernatant followed by gentle agitation for 20 minutes at RT. After centrifugation at 700×g for 5 minutes, supernatant is removed. The resin is washed twice by adding 10 bed volumes of the Extraction Buffer, agitating for 10 minutes at RT, centrifugating at 700×g for 5 minutes, and discarding the supernatant. The resin is then resuspended with the same volume of the Extraction Buffer and transferred to an disposable chromatography column. The packed column is washed once with 10 bed volumes of the Extraction Buffer and additionally with the same volume of Wash Buffer (5 mM imidazole in the Extraction Buffer). Then, the His-tagged S6K1ΔCT/T412E is eluted with four bed volumes of Elution Buffer (150 mM imidazole in the Extraction Buffer).
Measure of enzyme activity: The kinase assay with purified S6K1ΔCT/T412E is performed with TR-FRET (Time-Resolved Fluorescene Resonance Energy Transfer) technology. First, ATP-dependent phosphorylation of the biotinylated substrate peptide corresponding to residues 229-242 of S6 ribosomal protein (Biot-AKRRRLSSLRASTS) is carried out for 1 hour at 37° C. in […] under humidified air. The kinase reaction mixture of the final volume of 9 μL contains 2.57 ng of purified S6K1ΔCT/T412E protein, 50 mM MOPS (pH 7.0), 0.1 mM EGTA, 0.01 mM Na3VO4, 0.05% Tween-20, 0.01% BSA, 1 mM DTT, 10 mM MgCl2, 3 μM ATP, 0.5 μM biotinylated substrate peptide, 1% of DMSO or the text compounds of the formula (I) at the required concentration in 1% DMSO. For measurement of background, 20 mM of EDTA is added to the reaction mixture. […] Phosphorylated peptide indicative of kinase activity is quantitated by exciting the sample at 330 nm and comparing donor emission at 615 nm and acceptor emission at 665 nm by 2101 EnVision HTS multilabel plate reader (Perkin Elmer). […]

[2] = molecular target: PKB (Homo sapiens, UniProt P31749); assay: PKB kinase inhibition (PDK1-activated GST-PKB, 33P peptide assay); conditions: read-out: IC50 Range Class, inhibition of PKB
Experimental: GST-PKB [100 ng, specific activity (SA): 0.2 nmole/mg/min.] is incubated for 30 minutes at room temperature (RT) with purified recombinant GST-PDK1 (1 ng, SA: 2 nmole/min./mg). The activation is performed as follows: 0.1 μg of GST-PDK1 (0.05 μL) and 10 μg of GST-PKB (0.45 μL) are mixed in a total volume of 0.75 μL containing 15 μM ATP, 3 mM MgCl2, 20 mM hepes (pH 7.6) for 30 minutes at RT. The reaction is subsequently stopped by adding 0.25 μL containing 30% gycerol (w/w) and 0.06 μL of 500 mM EDTA. 100-500 ng (0.01-0.05 μL) activated GST-PKB is incubated in a final volume of 30 μL with 10 μM of the RRPRTRSFS peptide, 10 mM Mg-acetate, 50 mM MOPS (PH 7.5), 1 mM DTT and 300 μg/mL BSA, 20 μM ATP (0.1 μCi γ-^33P-ATP). The reaction is carried out for 30 minutes at RT in the presence of either 1% DMSO or the text compound of the formula (I) at the required concentration in 1% DMSO. The reaction is terminated by the addition of 20 μL 125 mM EDTA. Thirty (30) μL of each sample is spotted onto P81 Whatman and the paper squares processed. See Ferrari and Thomas, Methods Enzymol, Vol. 200, pp. 159-169 (1991). IC50 values are calculated by linear regression analysis of the percentage inhibition of each compound in duplicate.

[3] = molecular target: T2, RET (Homo sapiens, UniProt P07949); assay: RET kinase inhibition (33P filter assay, GST-wtRET or GST-RET-Men2B); conditions: for IC50: read-out: IC50 Range Class, inhibition of RET
T2 construct: fused on or other part: N-terminal GST tag (from vector pFB-GSTX3)
Experimental: RET kinase inhibition is determined as follows: The baculovirus donor vector pFB-GSTX3 is used to generate a recombinant baculovirus that expresses the amino acid region 658-1072 (Swiss Prot No. Q9BTB0) of the intra-cytoplasmic kinase domain of human RET-Men2A which corresponds to the wild-type kinase domain of RET (wtRET) and RET-Men2B, which differs from the wtRET by the activating mutation in the activation loop M918T. The coding sequences for the cytoplasmic domain of wtRET and RET-Men2B are amplified by PCR from the plasmids pBABEpuro RET-Men2A and pBABEpuro RET-Men2B, respectively which are received from Dr. James Fagin, College of Medicine, University of Cincinnati. The amplified DNA fragments and the pFB-GSTX3 vector are made compatible for ligation by digestion with SaII and KpnI. Ligation of these DNA fragments results in the baculovirus donor plasmid pFB-GX3-RET-Men2A and pFB-GX3-RET-Men2B, respectively.
Production of virus: Transfer vectors containing the kinase domains are transfected into the DH10Bac cell line (GIBCO) and plated on selective agar plates. Colonies without insertion of the fusion sequence into the viral genome (carried by the bacteria) are blue. Single, white colonies are picked and viral DNA (bacmid) isolated from the bacteria by standard plasmid purification procedures. Sf9 cells or Sf21 (American Type Culture Collection) cells are then transfected in 25 cm^2 flasks with the viral DNA using Cellfectin reagent.
Determination of small scale protein expression in Sf9 cells: Virus-containing media is collected from the transfected cell culture and used for Infection to increase its titer. Virus-containing media obtained after two rounds of infection is used for large-scale protein expression. For large-scale protein expression 100 cm^2 round tissue culture plates are seeded with 5×10^7 cells/plate and infected with 1 mL of virus-containing media (approximately 5 MOls). After 3 days, the cells are scraped off the plate and centrifuged at 500 rpm for 5 minutes. Cell pellets from 10-20, 100 cm^2 plates, are re-suspended in 50 mL of ice-cold lysis buffer (25 mM tris-HCl, pH 7.5, 2 mM EDTA, 1% NP-40, 1 mM DTT, 1 mM P MSF). The cells are stirred on ice for 15 minutes and then centrifuged at 5,000 rpms for 20 minutes.
Purffication of GST-tagged proteins: The centrifuged cell lysate is loaded onto a 2 mL glutathione-sepharose column (Pharmacia) and washed 3× with 10 mL of 25 mM tris-HCl, pH 7.5, 2 mM EDTA, 1 mM DTT, 200 mM NaCl. The GST-tagged proteins are then eluted by 10 applications (1 mL each) of 25 mM tris-HCl, pH 7.5, 10 mM reduced-glutathione, 100 mM NaCl, 1 mM DTT, 10% glycerol and stored at −70° C.
Measure of enzyme activity: Tyrosine protein kinase assays with either purified GST-wtRET or GST-RET-Men2B protein are carried out in a final volume of 30 μL containing 15 ng of either GST-wtRET or GST-RET-Men2B protein, 20 mM tris-HCl, pH 7.5, 1 mM MnCl2, 10 mM MgCl2, 1 mM DTT, 3 μg/mL poly(Glu, Tyr) 4:1, 1% dimethyl sulfoxide (DMSO), 2.0 μM ATP (γ-[^33P]-ATP 0.1 μCi). The activity is assayed in the presence or absence of inhibitors, by measuring the Incorporation of ^33P from [γ^33P] ATP into poly(Glu, Tyr) 4:1. The assay is carried out in 96-well plates at ambient temperature for 15 minutes under conditions described below and terminated by the addition of 20 μL of 125 mM EDTA. […] Membranes are counted after drying at ambient temperature, mounting in Packard TopCount 96-well frame, and addition of 10 μL/well of Microscint™ (Packard). […]

T2 sequence (P07949 1-1072 isoform P07949-2): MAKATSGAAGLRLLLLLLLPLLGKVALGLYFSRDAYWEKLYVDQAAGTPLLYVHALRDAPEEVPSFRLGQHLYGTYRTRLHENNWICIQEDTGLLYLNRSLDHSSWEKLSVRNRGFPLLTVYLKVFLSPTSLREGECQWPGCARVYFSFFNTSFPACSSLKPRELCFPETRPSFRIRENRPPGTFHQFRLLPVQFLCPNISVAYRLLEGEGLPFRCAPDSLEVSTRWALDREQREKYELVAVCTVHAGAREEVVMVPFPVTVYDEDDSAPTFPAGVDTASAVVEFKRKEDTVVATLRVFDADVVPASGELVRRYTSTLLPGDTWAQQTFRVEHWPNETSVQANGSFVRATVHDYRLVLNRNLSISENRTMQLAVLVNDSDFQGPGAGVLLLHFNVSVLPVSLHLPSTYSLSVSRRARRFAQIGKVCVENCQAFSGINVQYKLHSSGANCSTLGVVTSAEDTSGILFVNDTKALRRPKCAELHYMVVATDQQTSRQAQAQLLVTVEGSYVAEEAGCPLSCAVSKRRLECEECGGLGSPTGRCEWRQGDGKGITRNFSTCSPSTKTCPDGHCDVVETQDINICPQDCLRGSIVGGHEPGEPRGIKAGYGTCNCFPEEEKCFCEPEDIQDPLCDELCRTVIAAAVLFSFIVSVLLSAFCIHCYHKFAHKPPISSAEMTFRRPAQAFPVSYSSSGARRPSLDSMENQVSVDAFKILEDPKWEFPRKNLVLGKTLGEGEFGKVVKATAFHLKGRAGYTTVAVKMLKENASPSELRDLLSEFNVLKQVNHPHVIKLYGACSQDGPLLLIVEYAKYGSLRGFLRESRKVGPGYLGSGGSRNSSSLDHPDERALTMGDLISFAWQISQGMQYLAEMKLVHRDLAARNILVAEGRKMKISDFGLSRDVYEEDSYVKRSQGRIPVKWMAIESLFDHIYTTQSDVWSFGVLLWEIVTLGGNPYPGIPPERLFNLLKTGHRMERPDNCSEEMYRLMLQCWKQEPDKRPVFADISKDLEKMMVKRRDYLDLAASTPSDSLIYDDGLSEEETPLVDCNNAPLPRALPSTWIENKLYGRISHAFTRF
Chain of PKB (P31749 whole entry): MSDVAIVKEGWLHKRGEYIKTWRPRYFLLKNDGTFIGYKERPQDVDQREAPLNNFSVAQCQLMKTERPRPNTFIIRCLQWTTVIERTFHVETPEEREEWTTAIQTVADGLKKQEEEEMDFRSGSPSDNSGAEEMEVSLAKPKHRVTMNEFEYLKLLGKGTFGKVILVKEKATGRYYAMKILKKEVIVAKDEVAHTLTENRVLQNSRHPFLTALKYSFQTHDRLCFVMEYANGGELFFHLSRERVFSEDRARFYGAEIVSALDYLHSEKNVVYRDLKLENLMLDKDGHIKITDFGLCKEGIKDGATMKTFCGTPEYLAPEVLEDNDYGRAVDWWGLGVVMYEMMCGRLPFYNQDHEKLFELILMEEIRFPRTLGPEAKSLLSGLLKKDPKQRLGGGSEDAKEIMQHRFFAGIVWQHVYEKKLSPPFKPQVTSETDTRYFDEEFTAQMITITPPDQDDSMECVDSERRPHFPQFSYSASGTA
T1 sequence (P23443 1-421 T412E): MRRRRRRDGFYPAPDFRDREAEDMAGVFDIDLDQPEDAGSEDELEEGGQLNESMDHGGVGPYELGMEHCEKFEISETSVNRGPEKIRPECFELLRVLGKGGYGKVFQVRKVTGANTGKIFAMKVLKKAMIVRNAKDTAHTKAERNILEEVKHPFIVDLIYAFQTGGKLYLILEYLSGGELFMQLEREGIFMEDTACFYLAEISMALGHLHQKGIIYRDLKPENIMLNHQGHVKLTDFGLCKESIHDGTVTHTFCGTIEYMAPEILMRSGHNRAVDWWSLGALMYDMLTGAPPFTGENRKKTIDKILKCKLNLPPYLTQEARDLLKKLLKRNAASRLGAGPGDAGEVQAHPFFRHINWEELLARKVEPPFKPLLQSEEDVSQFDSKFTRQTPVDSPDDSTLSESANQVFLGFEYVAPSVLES

## Cc1cc(CCN)ccc1-n1cnc2cnc3ccc(-c4ccc5[nH]ccc5c4)cc3c21 [Example 22, 2-{4-[8-(1H-indol-5-yl)-Imidazo[4,5-c]quinolin-1-yl]-3-methyl-phenyl}-ethylamine]
[1]
  IC50: ≤ 500 nM

## NCCc1ccc(-n2cnc3cnc4ccc(-c5ccc(O)cc5)cc4c32)c(C(F)(F)F)c1 [Example 30, 4-{1-[4-(2-Amino-ethyl)-2-trifluoromethyl-phenyl]-1H-imidazo[4,5-c]quinolin-8-yl}-phenol]
[1]
  IC50: ≤ 500 nM

## NCCc1ccc(-n2cnc3cnc4cc(F)c(-c5cccs5)cc4c32)cc1 [Example 61, 2-[4-(7-Fluoro-8-thiophen-2-yl-imidazo[4,5-c]quinolin-1-yl)-phenyl]-ethylamine]
[2]
  IC50: ≤ 500 nM

## NCCc1ccc(-n2cnc3cnc4cc(F)c(-c5ccc6[nH]ccc6c5)cc4c32)cc1 [Example 64, 2-{4-[7-Fluoro-8-(1H-indol-5-yl)-imidazo[4,5-c]quinolin-1-yl]-phenyl}-ethylamine]
[2]
  IC50: ≤ 500 nM

## NCCCc1ccc(-n2cnc3cnc4cc(F)c(-c5ccsc5)cc4c32)cc1 [Example 74, 3-[4-(7-Fluoro-8-thiophen-3-yl-imidazo[4,5-c]quinolin-1-yl)-phenyl]-propylamine]
[2]
  IC50: ≤ 500 nM

## NCCc1ccc(-n2cnc3cnc4cc(F)c(-c5ccc6[nH]ccc6c5)cc4c32)c(Cl)c1 [Example 83, 2-{3-Chloro-4-[7-fluoro-8-(1H-indol-5-yl)-imidazo[4,5-c]quinolin-1-yl]-phenyl}-ethylamine]
[1]
  IC50: ≤ 500 nM

## NCCc1ccc(-n2cnc3cnc4cc(Cl)c(-c5ccsc5)cc4c32)cc1 [Example 90, 2-[4-(7-Chloro-8-thiophen-3-yl-imidazo[4,5-c]quinolin-1-yl)-phenyl]-ethylamine]
[2]
  IC50: ≤ 500 nM

## COc1ccc(OC)c(-c2ccc3ncc4ncn(-c5ccccc5F)c4c3c2)c1 [Example 119, 8-(2,5-Dimethoxy-phenyl)-1-(2-fluoro-phenyl)-1H-imidazo[4,5-c]quinoline]
[3]
  IC50: 500 to 1000 nM

## Fc1ccccc1-n1cnc2cnc3ccc(-c4ccncc4)cc3c21 [Example 125, 1-(2-Fluoro-phenyl)-8-pyridin-4-yl-1H-imidazo[4,5-c]quinoline]
[3]
  IC50 Range Class, inhibition of RET: B/A

## Oc1ccc(-c2ccc3ncc4ncn(-c5ccccc5F)c4c3c2)cc1 [Example 127, 4-[1-(2-Fluoro-phenyl)-1H-imidazo[4,5-c]quinolin-8-yl]-phenol]
[3]
  IC50: ≤ 500 nM

## CN(C)Cc1cccc(-c2ccc3ncc4ncn(-c5ccccc5F)c4c3c2)c1 [Example 129, {3-[1-(2-Fluoro-phenyl)-1H-imidazo[4,5-c]quinolin-8-yl]-benzyl}-dimethyl-amine]
[3]
  IC50: ≤ 500 nM

## c1ccc(-n2cnc3cnc4ccc(-c5cccc(N6CCNCC6)c5)cc4c32)cc1 [Example 134, 1-Phenyl-8-(3-piperazin-1-yl-phenyl)-1H-imidazo[4,5-c]quinoline]
[3]
  IC50: 500 to 1000 nM
